Patent publication US10472346B2, “Potent gamma-secretase modulators” (The General Hospital Coporation, priority 2014, dated 2019)
Entries after “also recorded” stand apart in the source; their conditions may differ.

Assays:
Aβ42 = Aβ42 IC50 assay (SHSYSY-APP cell-based screening, UCSD sandwich Aβ42 ELISA)
Excerpt: FIG. 8: Representative concentration response curves of Compound 1 using our primary and orthogonal medium throughput SHSYSY-APP cell-based screening assays (10). Compounds are first screened two times in triplicate in our UCSD sandwich Aβ42 ELISA on sequential days and the average of the two assays must be within 3-fold of each other before being entered into the CDD relational database. The UCSD sandwich ELISA assay can easily handle 20 compounds per week. Compounds with Aβ42 IC50 values <100 nM continue through the testing funnel. The Z′ score and the % CV for the UCSD Aβ42 sandwich ELISA assay are 0.8 and 4, respectively. For the Meso Scale triplex assay the Z′ scores are 0.7, 0.9 and 0.6 Aβ42, Aβ40 and Aβ38, respectively and the % CV's are 7, 2 and 1 for Aβ42, Aβ40 and Aβ38, respectively. Aβ total peptides are measured using a sandwich ELISA.
Tabular Results of A1142 Assays Conducted on Compounds of Examples 5-102. Assays are Aβ42 IC50 (nM).

Notch processing = Notch processing in transfected H4-APP751 cells (Western blot, Myc antibody, NICD); type: cell-based, human; details: 24 hrs; for Notch processing (NICD levels, Western blot): H4-APP751 cells transfected with the Notch NδED construct, 40 nM, 200 nM, 1000 nM, and 5000 nM
Excerpt: Cells were harvested 48 hrs post transfection and applied to Western blotting analysis. Myc antibody was utilized to assess the NAED and NICD tagged with Myc on their N-termini. β-Actin was utilized as the loading control.
Cells were harvested 48 hrs post transfection and subjected to Western blotting analysis. Myc antibody was utilized to assess the NδED and NICD tagged with Myc on their N-termini.
Stable H4 human neuroglioma cells over-expressing human APP751, or H4-APP751 cells, were transfected with the NAE construct, and then treated with different concentrations SGSM Compound 1 (Lanes 1-6) or DAPT (Lanes 7-10) for another 24 hrs and are shown in FIG. 9. Cells were harvested 48 hrs post transfection and applied to Western blotting analysis. Myc antibody was utilized to assess the NAED and NICD tagged with Myc on their N-termini β-Actin was utilized as the loading control.
Stably-transfected H4 human neuroglioma cells over-expressing human APP751 (H4-APP751) cells, were transfected with the Notch NδED construct, and then treated with vehicle, or different doses of GSMs (40 nM, 200 nM, 1000 nM, and 5000 nM) for 24 hrs. Cells were harvested 48 hrs post transfection and subjected to Western blotting analysis.

| IC50 (Aβ42) | melting point | SMILES | Notch processing (NICD, Western blot) (Notch processing; H4-APP751 cells transfected with the NAE construct, different concentrations) | Notch processing (NICD levels, Western blot) (Notch processing) |
| --- | --- | --- | --- | --- |
| 0.0071 µM | 99 to 102 °C | COc1nc(-c2cc(C)c(N[C@@H]3C[C@H]3c3ccccc3)nn2)ccc1-n1cnc(C)c1 (racemic) [Example 72, (+/−)-trans-6-(6-methoxy-5-(4-methyl-1H-imidazol-1-yl)pyridin-2-yl)-4-methyl-N-(2-phenylcyclopropyl)pyridazin-3-amine] |  |  |
|  | 96 to 102 °C | COc1nc(-c2ccc(N[C@@H](C)c3ccc(F)cc3)nn2)ccc1-n1cnc(C)c1 [Compound 2, (S)—N-(1-(4-Fluorophenyl)ethyl)-6-(6-methoxy-5-(4-methyl-1H-imidazol-1-yl)pyridin-2-yl)pyridazin-3-amine] |  |  |
|  |  | C[C@H](NC(=O)Cc1cc(F)cc(F)c1)C(=O)N[C@H](C(=O)OC(C)(C)C)c1ccccc1 [DAPT, reference compound] | significantly inhibits Notch processing | significantly inhibits Notch processing |
| 0.021 µM | 245 to 246 °C | COc1nc(-c2cc(C(C)C)c(NCc3ccc(F)cc3)nn2)ccc1-n1cnc(C)c1 [Example 13, N-(4-fluorobenzyl)-4-isopropyl-6-(6-methoxy-5-(4-methyl-1H-imidazol-1-yl)pyridin-2-yl)pyridazin-3-amine] |  |  |
|  | > 250 °C | COc1nc(-c2ccc(N)nn2)ccc1-n1cnc(C)c1 [Example 24A, 6-(6-Methoxy-5-(4-methyl-1H-imidazol-1-yl)pyridin-2-yl)pyridazin-3-amine] |  |  |
| > 10 µM | > 250 °C | COc1nc(-c2ccc(NC(=O)c3ccc(F)cc3)nn2)ccc1-n1cnc(C)c1 [Example 24B, 4-Fluoro-N-(6-(6-methoxy-5-(4-methyl-1H-imidazol-1-yl)pyridin-2-yl)pyridazin-3-yl)benzamide] |  |  |
| 0.036 µM | 170 to 172 °C | COc1nc(-c2ccc(NCc3ccc(F)cc3)nn2)ccc1-n1cnc(C)c1 [Example 26, N-(4-fluorobenzyl)-6-(6-methoxy-5-(4-methyl-1H-imidazol-1-yl)pyridin-2-yl)pyridazin-3-amine] |  |  |
| 0.018 µM | 140 to 143 °C | COc1nc(-c2nnc(N[C@@H](C)c3ccccc3)cc2C)ccc1-n1cnc(C)c1 [Example 28, (S)-6-(6-methoxy-5-(4-methyl-1H-imidazol-1-yl)pyridin-2-yl)-5-methyl-N-(1-phenylethyl)pyridazin-3-amine] |  |  |
| 0.0043 µM |  | COc1nc(-c2cc(C)c(N[C@@H](C)c3ccccc3F)nn2)ccc1-n1cnc(C)c1 [Example 34, (S)—N-(1-(2-fluorophenyl)ethyl)-6-(6-methoxy-5-(4-methyl-1H-imidazol-1-yl)pyridin-2-yl)-4-methylpyridazin-3-amine] |  | did not decrease the NICD levels at all concentrations studied; also recorded: not inhibit Notch processing |
| 0.0025 µM |  | COc1nc(-c2cc(C)c(N[C@@H](C)c3ccc(F)cc3F)nn2)ccc1-n1cnc(C)c1 [Example 45, (S)—N-(1-(2,4-difluorophenyl)ethyl)-6-(6-methoxy-5-(4-methyl-1H-imidazol-1-yl)pyridin-2-yl)-4-methylpyridazin-3-amine] |  | did not decrease the NICD levels at all concentrations studied; also recorded: not inhibit Notch processing |
| 0.0041 µM |  | COc1nc(-c2cc(C)c(N[C@@H](C)c3cc(F)cc(F)c3)nn2)ccc1-n1cnc(C)c1 [Example 46, (S)—N-(1-(3,5-difluorophenyl)ethyl)-6-(6-methoxy-5-(4-methyl-1H-imidazol-1-yl)pyridin-2-yl)-4-methylpyridazin-3-amine] |  | did not decrease the NICD levels at all concentrations studied; also recorded: not inhibit Notch processing |
| 0.038 µM | 204 to 206 °C | COc1nc(-c2cc(C)c(NCCc3ccc(F)cc3)nn2)ccc1-n1cnc(C)c1 [Example 50, N-(4-fluorophenethyl)-6-(6-methoxy-5-(4-methyl-1H-imidazol-1-yl)pyridin-2-yl)-4-methylpyridazin-3-amine] |  |  |
| 0.188 µM | 228 to 229 °C | COc1nc(-c2cc(C)c(NC(C)C)nn2)ccc1-n1cnc(C)c1 [Example 65, N-isopropyl-6-(6-methoxy-5-(4-methyl-1H-imidazol-1-yl)pyridin-2-yl)-4-methylpyridazin-3-amine] |  |  |
| 0.026 µM | 204 to 206 °C | COc1nc(-c2cc(C)c(NCCCc3ccc(F)cc3)nn2)ccc1-n1cnc(C)c1 [Example 73, N-(3-(4-fluorophenyl)propyl)-6-(6-methoxy-5-(4-methyl-1H-imidazol-1-yl)pyridin-2-yl)-4-methylpyridazin-3-amine] |  |  |
| 0.023 µM |  | CC[C@H](Nc1nnc(-c2ccc(-n3cnc(C)c3)c(OC)n2)cc1C)c1ccc(C#N)cc1 [Example 84, (S)-4-(1-((6-(6-methoxy-5-(4-methyl-1H-imidazol-1-yl)pyridin-2-yl)-4-methylpyridazin-3-yl)amino)propyl)benzonitrile] |  |  |
| 0.07 µM |  | COc1nc(-c2cc(C)c(NC3CCC(F)(F)CC3)nn2)ccc1-n1cnc(C)c1 [Example 85, N-(4,4-difluorocyclohexyl)-6-(6-methoxy-5-(4-methyl-1H-imidazol-1-yl)pyridin-2-yl)-4-methyl pyridazin-3-amine] |  |  |
| 0.0045 µM |  | CCC[C@H](Nc1nnc(-c2ccc(-n3cnc(C)c3)c(OC)n2)cc1C)c1ccccc1F [Example 86, (S)—N-(1-(2-fluorophenyl)butyl)-6-(6-methoxy-5-(4-methyl-1H-imidazol-1-yl)pyridin-2-yl)-4-methylpyridazin-3-amine] |  |  |
| 0.0115 µM |  | COC[C@H](Nc1nnc(-c2ccc(-n3cnc(C)c3)c(OC)n2)cc1C)c1ccc(F)cc1 [Example 87, (R)—N-(1-(4-fluorophenyl)-2-methoxyethyl)-6-(6-methoxy-5-(4-methyl-1H-imidazol-1-yl)pyridin-2-yl)-4-methylpyridazin-3-amine] |  |  |
| 0.012 µM |  | CC[C@H](Nc1nnc(-c2ccc(-n3cnc(C)c3)c(OC)n2)cc1C)c1ccccc1F [Example 88, (S)—N-(1-(2-fluorophenyl)propyl)-6-(6-methoxy-5-(4-methyl-1H-imidazol-1-yl)pyridin-2-yl)-4-methylpyridazin-3-amine] |  |  |
| 0.004 µM |  | COc1nc(-c2cc(C)c(N[C@@H](C)c3cccc(C)c3C)nn2)ccc1-n1cnc(C)c1 [Example 100, (S)—N-(1-(2,3-dimethylphenyl)ethyl)-6-(6-methoxy-5-(4-methyl-1H-imidazol-1-yl)pyridin-2-yl)-4-methylpyridazin-3-amine] |  |  |
| 0.005 µM |  | COc1nc(-c2cc(C)c(N[C@@H](C)c3cccc(C(F)(F)F)c3F)nn2)ccc1-n1cnc(C)c1 [Example 101, (S)—N-(1-(2-fluoro-3-(trifluoromethyl)phenyl)ethyl)-6-(6-methoxy-5-(4-methyl-1H-imidazol-1-yl)pyridin-2-yl)-4-methylpyridazin-3-amine] |  |  |
| 0.006 µM |  | COc1nc(-c2cc(C)c(N[C@H](c3ccc(F)cc3)C(C)(C)O)nn2)ccc1-n1cnc(C)c1 [Example 102, (R)-1-(4-fluorophenyl)-1-((6-(6-methoxy-5-(4-methyl-1H-imidazol-1-yl)pyridin-2-yl)-4-methylpyridazin-3-yl)amino)-2-methylpropan-2-ol] |  |  |
| 0.013 µM |  | COc1nc(-c2cc(C)c(N[C@H](C)c3ccc(F)cc3Cl)nn2)ccc1-n1cnc(C)c1 [Example 103, (R)—N-(1-(2-chloro-4-fluorophenyl)ethyl)-6-(6-methoxy-5-(4-methyl-1H-imidazol-1-yl)pyridin-2-yl)-4-methylpyridazin-3-amine] |  |  |
